Literature values in patent US20260199284A1, “SPECIFIC VASH COMPOUNDS (SVC) INHIBITORS FOR HEART DISEASES” (MT ACT, priority 2023, published 2026).

Test system: VASH
Conditions: cited from earlier work

CCOC(=O)[C@H]1O[C@@H]1C(=O)N[C@@H](Cc1ccc(O)cc1)C(=O)O [Epo-Y, epoxide-Y]
more potent VASH inhibitor than PTL: > 10 fold
